Source: US20220127281A1, “HETEROARYL COMPOUNDS THAT INHIBIT G12C MUTANT RAS PROTEINS” (AstraZeneca AB, priority 2017, published 2022)
Read-outs that look alike come from different tables or passages of the source.

Columns and labels:
[1] = biological target: T1, GDP loaded biotinylated KRas^G12C protein (Homo sapiens, UniProt P01116, G12C); test: KRasG12C functional assay; type: biochemical; details: HTRF FRET readout of SOS-mediated nucleotide exchange and GST-Raf RBD binding, samples incubated for 4 hrs
T1 construct: biotin (biotinylated); made in house
T1 sequence (P01116 1-188 isoform P01116-2 G12C): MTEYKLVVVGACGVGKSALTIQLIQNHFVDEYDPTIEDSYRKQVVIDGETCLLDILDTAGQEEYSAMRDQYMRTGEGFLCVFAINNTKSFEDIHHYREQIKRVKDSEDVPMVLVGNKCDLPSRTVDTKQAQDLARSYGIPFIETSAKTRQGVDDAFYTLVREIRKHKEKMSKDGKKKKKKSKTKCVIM
Procedure: KRasG12C Functional Assay
All enzyme and substrate solutions were prepared in assay buffer containing 20 mM HEPES (pH 7.5), 5 mM MgCl2, 150 mM NaCl, and 0.01% Tween 20. […] In a separate mix 20 nM GST-Raf Ras binding domain (GST-Raf RBD, purified in house) and 4 μg/ml anti-GST XL665 antibody (Cisbio) was prepared in assay buffer containing 50 mM Potassium Fluoride and 0.05 mg/ml BSA and equilibrated for 4 hours before adding 0.6 μM Guanosine 5′-[γ-thio]triphosphate (GTPγS, Sigma) and 0.08 μM SOS (purified in house). 5 μl of the GST-RAF RBD mix was then dispensed into each well of the assay plate. […] This is detected simultaneously via the specific binding interaction between active GTPγS KRas^G12C with GST-Raf RBD which brings the europium and XL665 into close proximity enabling an increased FRET signal to be detected on a Pherastar (BMG) plate reader equipped with the HTRF filter module. […] IC50 values were calculated from normalised dose-response response FRET data curve fitted in Genedata screener (Basel, Switzerland).

[2] = biological target: T1, GDP loaded biotinylated KRas^G12C protein; test: KRasG12C mass spectrometry adducting assay; type: binding; details: test compound final concentration 10 μM, 4 μM KRasG12C, react for 4 hours
Procedure: KRasG12C Mass Spectrometry Adducting Assay
Enzyme solutions were prepared in assay buffer containing 20 mM HEPES (pH 7.5), 5 mM MgCl2, and 150 mM NaCl. […] The plate was sealed before reading on a Xevo G2 QTOF (Waters) and Acquity LC system (Waters). […] Blank samples were run in between each test sample.
Data was analysed in Mass Lynx software (Waters), the Total ion count (TIC) trace was used and the eluted protein peak data combined. Using the combined spectrum the data was deconvoluted using MaxEnt1 method. The peak area for apo-protein KRas^G12C (APO) and KRAS+relative cmpd mass (adduct) were measured, and a percentage adduct was calculated using the following calculation:
Percent adduct=100*(area of adduct peak/(sum of APO+adduct peaks)

[3] = read-out: KRasG12C functional assay IC50 value

C=CC(=O)N1CCN2c3ncnc4cc(-c5cc(F)ccc5F)c(Cl)c(c34)OC[C@@H]2C1 [Example 40, 1-[(8aS)-6-Chloro-5-(2,5-difluorophenyl)-8a,9,11,12-tetrahydropyrazino[2′,1′:3,4][1,4]oxazepino[5,6,7-de]quinazolin-10(8H)-yl]prop-2-en-1-one]
IC50 [1, 3]: 0.955 µM
KRasG12C M.S. Binding Mean adduct % [2]: 67%

C=CC(=O)N1CCN2c3ncnc4cc(-c5cccc6ccc(=O)n(C)c56)c(Cl)c(c34)OC[C@@H]2C1 [Example 44, 8-[(8aS)-10-Acryloyl-6-chloro-8,8a,9,10,11,12-hexahydropyrazino[2′,1′:3,4][1,4]oxazepino[5,6,7-de]quinazolin-5-yl]-1-methylquinolin-2(1H)-one]
IC50 [1, 3]: 3.62 µM
KRasG12C M.S. Binding Mean adduct % [2]: 51%

C=CC(=O)N1CCN2c3ncnc4cc(-c5c(O)cccc5Cl)c(Cl)c(c34)OC[C@@H]2C1 (single isomer, unassigned) [Example 15]
IC50 [1, 3]: 22.7 µM
KRasG12C M.S. Binding Mean adduct % [2]: 12%

C=CC(=O)N1CCN2c3ncnc4cc(-c5cc(Cl)ccc5OC)c(Cl)c(c34)OC[C@@H]2C1 [Example 48, 1-[(8aS)-6-Chloro-5-(5-chloro-2-methoxyphenyl)-8a,9,11,12-tetrahydropyrazino[2′,1′:3,4][1,4]oxazepino[5,6,7-de]quinazolin-10(8H)-yl]prop-2-en-1-one]
IC50 [1, 3]: 6.31 µM
KRasG12C M.S. Binding Mean adduct % [2]: 68%

C=CC(=O)N1CCN2c3ncnc4cc(-c5cccc6c5COCCO6)c(Cl)c(c34)OC[C@@H]2C1 [Example 43, 1-[(8aS)-6-Chloro-5-(2,3-dihydro-5H-1,4-benzodioxepin-6-yl)-8a,9,11,12-tetrahydropyrazino[2′,1′:3,4][1,4]oxazepino[5,6,7-de]quinazolin-10(8H)-yl]prop-2-en-1-one]
IC50 [1, 3]: 1.49 µM
KRasG12C M.S. Binding Mean adduct % [2]: 56%

C=CC(=O)N1CCN2c3ncnc4cc(-c5cccc6cnn(C)c56)c(Cl)c(c34)OC[C@@H]2C1 [Example 39, 1-[(8aS)-6-Chloro-5-(1-methyl-1H-indazol-7-yl)-8a,9,11,12-tetrahydropyrazino[2′,1′:3,4][1,4]oxazepino[5,6,7-de]quinazolin-10(8H)-yl]prop-2-en-1-one]
IC50 [1, 3]: 0.803 µM
KRasG12C M.S. Binding Mean adduct % [2]: 79%

C=CC(=O)N1CCN2c3ncnc4cc(-c5cccc(F)c5F)c(Cl)c(c34)OC[C@@H]2C1 [Example 62, 1-[(8aS)-6-Chloro-5-(2,3-difluorophenyl)-8a,9,11,12-tetrahydropyrazino[2′,1′:3,4][1,4]oxazepino[5,6,7-de]quinazolin-10(8H)-yl]prop-2-en-1-one]
IC50 [1, 3]: 0.355 µM
KRasG12C M.S. Binding Mean adduct % [2]: 100%

C=CC(=O)N1CCN2c3ncnc4cc(-c5ccc(O)c(C#N)c5)c(Cl)c(c34)OC[C@@H]2C1 [Example 56, 5-[(8aS)-10-Acryloyl-6-chloro-8,8a,9,10,11,12-hexahydropyrazino[2′,1′:3,4][1,4]oxazepino[5,6,7-de]quinazolin-5-yl]-2-hydroxybenzonitrile]
IC50 [1, 3]: 4.39 µM
KRasG12C M.S. Binding Mean adduct % [2]: 0%

C=CC(=O)N1CCN2c3ncnc4cc(-c5cccc6c5ncn6C)c(Cl)c(c34)OC[C@@H]2C1 [Example 45, 1-[(8aS)-6-Chloro-5-(1-methyl-1H-benzimidazol-4-yl)-8a,9,11,12-tetrahydropyrazino[2′,1′:3,4][1,4]oxazepino[5,6,7-de]quinazolin-10(8H)-yl]prop-2-en-1-one]
IC50 [1, 3]: 1.58 µM
KRasG12C M.S. Binding Mean adduct % [2]: 72%

C=CC(=O)N1CCN2c3ncnc4cc(-c5c(O)cccc5F)c(Cl)c(c34)OC[C@@H]2C1 [Example 9, 1-[(8aS)-6-Chloro-5-(2-fluoro-6-hydroxyphenyl)-8a,9,11,12-tetrahydropyrazino-[2′,1′:3,4][1,4]oxazepino[5,6,7-de]quinazolin-10 (8H)-yl]prop-2-en-1-one]
IC50 [1, 3]: 0.124 µM
KRasG12C M.S. Binding Mean adduct % [2]: 100%

C=CC(=O)N1CCN2c3ncnc4cc(-c5cccc(CC#N)c5)c(Cl)c(c34)OC[C@@H]2C1 [Example 59, {3-[(8aS)-10-Acryloyl-6-chloro-8,8a,9,10,11,12-hexahydropyrazino[2′,1′:3,4][1,4]oxazepino[5,6,7-de]quinazolin-5-yl]phenyl}acetonitrile]
IC50 [1, 3]: 5.85 µM
KRasG12C M.S. Binding Mean adduct % [2]: 42%

C=CC(=O)N1CCN2c3ncnc4cc(-c5cccc6c5CCCOC6)c(Cl)c(c34)OC[C@@H]2C1 [Example 28, 1-[(8aS)-6-Chloro-5-(1,3,4,5-tetrahydro-2-benzoxepin-6-yl)-8a,9,11,12-tetrahydropyrazino[2′,1′:3,4][1,4]oxazepino[5,6,7-de]quinazolin-10(8H)-yl]prop-2-en-1-one]
IC50 [1, 3]: 9.93 µM
KRasG12C M.S. Binding Mean adduct % [2]: 26%

C=CC(=O)N1CCN2c3ncnc4cc(-c5c(C)ccc6[nH]ncc56)c(Cl)c(c34)OCC[C@@H]2C1 (single isomer, unassigned) [Example 82]
IC50 [1, 3]: 0.166 µM
KRasG12C M.S. Binding Mean adduct % [2]: 26%

C=CC(=O)N1CCN2c3ncnc4cc(-c5cccc6oc(=O)n(C)c56)c(Cl)c(c34)OC[C@@H]2C1 [Example 47, 4-[(8aS)-10-Acryloyl-6-chloro-8,8a,9,10,11,12-hexahydropyrazino[2′,1′:3,4][1,4]oxazepino[5,6,7-de]quinazolin-5-yl]-3-methyl-1,3-benzoxazol-2(3H)-one]
IC50 [1, 3]: 9.82 µM
KRasG12C M.S. Binding Mean adduct % [2]: 9%

C=CC(=O)N1CCN2c3ncnc4cc(-c5cccc6ncoc56)c(Cl)c(c34)OC[C@@H]2C1 [Example 58, 1-[(8aS)-5-(1,3-Benzoxazol-7-yl)-6-chloro-8a,9,11,12-tetrahydropyrazino[2′,1′:3,4][1,4]oxazepino[5,6,7-de]quinazolin-10(8H)-yl]prop-2-en-1-one]
IC50 [1, 3]: 7.09 µM
KRasG12C M.S. Binding Mean adduct % [2]: 42%

C=CC(=O)N1CCN2c3ncnc4cc(-c5cccc6c(C)n(C)nc56)c(Cl)c(c34)OC[C@@H]2C1 [Example 37, 1-[(8aS)-6-Chloro-5-(2,3-dimethyl-2H-indazol-7-yl)-8a,9,11,12-tetrahydropyrazino[2′,1′:3,4][1,4]oxazepino[5,6,7-de]quinazolin-10(8H)-yl]prop-2-en-1-one]
IC50 [1, 3]: 2.73 µM
KRasG12C M.S. Binding Mean adduct % [2]: 49%

C=CC(=O)N1CCN2c3ncnc4cc(-c5ccc(F)cc5F)c(Cl)c(c34)OC[C@@H]2C1 [Example 66, 1-[(8aS)-6-Chloro-5-(2,4-difluorophenyl)-8a,9,11,12-tetrahydropyrazino[2′,1′:3,4][1,4]oxazepino[5,6,7-de]quinazolin-10(8H)-yl]prop-2-en-1-one]
IC50 [1, 3]: 1.45 µM
KRasG12C M.S. Binding Mean adduct % [2]: 84%

C=CC(=O)N1CCN2c3ncnc4cc(-c5ccc(O)cc5)c(Cl)c(c34)OC[C@@H]2C1 [Example 52, 1-[(8aS)-6-Chloro-5-(4-hydroxyphenyl)-8a,9,11,12-tetrahydropyrazino[2′,1′:3,4][1,4]oxazepino[5,6,7-de]quinazolin-10(8H)-yl]prop-2-en-1-one]
IC50 [1, 3]: 5.36 µM
KRasG12C M.S. Binding Mean adduct % [2]: 17%

C=CC(=O)N1CCN2c3ncnc4cc(-c5c(C)ccc6[nH]ncc56)c(Cl)c(c34)OC[C@@H]2C1 [Example 1, 1-[(8aS)-6-Chloro-5-(5-methyl-1H-indazol-4-yl)-8a,9,11,12-tetrahydropyrazino-[2′,1′:3,4][1,4]oxazepino[5,6,7-de]quinazolin-10 (8H)-yl]-2-propen-1-one]
IC50 ([1]; KRasG12C functional assay IC50 value (μM)): 0.102 µM
KRasG12C M.S. Binding Mean adduct % [2]: 95%
